According to patent publication US20230174667A1 (priority 2020, published 2023):

Experiments:
[1] = tested on: heat-inactivated SARS-CoV-2; assay: Inhibition of SARS-CoV-2 uptake into RAW 264.7 murine macrophages (flow cytometry); type: cell-based; details: co-administered with SARS-CoV-2
NF-κB [2] = assay: Inhibition of SARS-CoV-2-induced NF-κB activation in RAW 264.7/NF-κB-luc cells (luciferase); type: cell-based, murine; details: same agents as in the RAW 264.7 uptake test
NF-κB [3] = assay: Inhibition of SARS-CoV-2-induced NF-κB activation in A549/NF-κB-luc cells (luciferase); type: cell-based, human

Molecule: PRRAR peptide: PRRAR peptide from the heparin-binding motif of the S1 subunit of the SARS-CoV-2 spike protein (Pro681-Arg685) (UniProt P0DTC2 681-685, looked up, fragment)
- inhibition of SARS-CoV-2 cellular uptake (percent inhibition, FIG. 7) [1]: significantly (p<0.05) inhibited
- inhibition of SARS-CoV-2-induced NF-κB activation (percent inhibition, FIG. 8) (NF-κB [2]): inhibited

Molecule: Cn1c2ccccc2c2c3c(c4c5ccccc5n(CCC#N)c4c21)CNC3=O [Gö 6983, Gö 6976]
- inhibition of SARS-CoV-2-induced NF-κB activation (percent inhibition, FIG. 5) (NF-κB [3]): significantly (p<0.05) inhibited
- inhibition of SARS-CoV-2 cellular uptake (percent inhibition, FIG. 7) [1]: significantly (p<0.05) inhibited
- inhibition of SARS-CoV-2-induced NF-κB activation (percent inhibition, FIG. 8) (NF-κB [2]): inhibited

Molecule: NC(N)=NC(=O)c1nc(Cl)c(N2CCCCCC2)nc1N [hexamethylene amiloride]
- inhibition of SARS-CoV-2-induced NF-κB activation (percent inhibition, FIG. 5) (NF-κB [3]): significantly (p<0.05) inhibited
- inhibition of SARS-CoV-2 cellular uptake (percent inhibition, FIG. 7) [1]: significantly (p<0.05) inhibited
- inhibition of SARS-CoV-2-induced NF-κB activation (percent inhibition, FIG. 8) (NF-κB [2]): inhibited

Molecule: heparan sulfate
- inhibition of SARS-CoV-2-induced NF-κB activation (percent inhibition, FIG. 5) (NF-κB [3]): significantly (p<0.05) inhibited
- inhibition of SARS-CoV-2 cellular uptake (percent inhibition, FIG. 7) [1]: significantly (p<0.05) inhibited
- inhibition of SARS-CoV-2-induced NF-κB activation (percent inhibition, FIG. 8) (NF-κB [2]): inhibited

Molecule: SPRRARSV peptide: SPRRARSV (Ser680-Val687, includes the PRRAR heparin-binding motif) from the S1 subunit of the SARS-CoV-2 spike protein
- inhibition of SARS-CoV-2-induced NF-κB activation (percent inhibition, FIG. 5) (NF-κB [3]): significantly (p<0.05) inhibited

Molecule: polyarginine: R8, amino acid sequence RRRRRRRR, synthesized by PepScan
- inhibition of SARS-CoV-2-induced NF-κB activation (percent inhibition, FIG. 5) (NF-κB [3]): significantly (p<0.05) inhibited

Molecule: TAT peptide: amino acid sequence YGRKKRRQRRR, synthesized by PepScan
- inhibition of SARS-CoV-2-induced NF-κB activation (percent inhibition, FIG. 5) (NF-κB [3]): significantly (p<0.05) inhibited

B1: recombinant SDC4: recombinant SDC4, RnD Systems, Cat. no. 2918-SD (protein, UniProt P31431 19-198, looked up)
Syndecan-4: ESIRETEVIDPQDLLEGRYFSGALPDDEDVVGPGQESDDFELSGSGDLDDLEDSMIGPEVVHPLVPLDNHIPERAGSGSQVPTEPKKLEENEVIPKRISPVEESEDVSNKVSMSSTVQGSNIFERTEVLAALIVGGIVGILFAVFLILLLMYRMKKKDEGSYDLGKKPIYKKAPTNEFYA
- inhibition of SARS-CoV-2-induced NF-κB activation (percent inhibition, FIG. 5) (NF-κB [3]): significantly (p<0.05) inhibited
- inhibition of SARS-CoV-2 cellular uptake (percent inhibition, FIG. 7) [1]: significantly (p<0.05) inhibited
- inhibition of SARS-CoV-2-induced NF-κB activation (percent inhibition, FIG. 8) (NF-κB [2]): inhibited
